According to patent US20260272878A1, “ADAR1 INHIBITORS AND USES THEREOF” (THE WISTAR INSTITUTE OF ANATOMY AND BIOLOGY, priority 2023, published 2026):
Entries after “also recorded” stand apart in the source; their conditions may differ.

How the values were obtained:
[1] = system: HeLa cells; assay: Western blotting of treated HeLa cells (DNA damage, M phase arrest, apoptosis); type: cell-based, human; conditions: 10 μM for ADAR1i-124
Procedure: FIGS. 8A-8C show analysis of ADAR1i-124 effects in cancer cells. […] Viability was examined using the Apo Tox-Glo assay system. Control, 0.3% DMSO. Data: mean±SD (n=3). Significant differences identified by two-tailed Student's t-tests: *P<0.05, n.s., not significant. (FIG. 8B) Western blotting analysis of HeLa cells treated with ADAR1i-124 (10 μM).
Dose-dependent selective killing of telomerase reactivated cancer cells was determined (FIG. 9A).

[2] = target: T1, ADAR1p150 (Homo sapiens, UniProt P55265); assay: In vitro editing assay, ADAR1p150; type: biochemical; conditions: for IC50: ADAR1p150 (not shown)
T1 sequence (P55265 1-1226): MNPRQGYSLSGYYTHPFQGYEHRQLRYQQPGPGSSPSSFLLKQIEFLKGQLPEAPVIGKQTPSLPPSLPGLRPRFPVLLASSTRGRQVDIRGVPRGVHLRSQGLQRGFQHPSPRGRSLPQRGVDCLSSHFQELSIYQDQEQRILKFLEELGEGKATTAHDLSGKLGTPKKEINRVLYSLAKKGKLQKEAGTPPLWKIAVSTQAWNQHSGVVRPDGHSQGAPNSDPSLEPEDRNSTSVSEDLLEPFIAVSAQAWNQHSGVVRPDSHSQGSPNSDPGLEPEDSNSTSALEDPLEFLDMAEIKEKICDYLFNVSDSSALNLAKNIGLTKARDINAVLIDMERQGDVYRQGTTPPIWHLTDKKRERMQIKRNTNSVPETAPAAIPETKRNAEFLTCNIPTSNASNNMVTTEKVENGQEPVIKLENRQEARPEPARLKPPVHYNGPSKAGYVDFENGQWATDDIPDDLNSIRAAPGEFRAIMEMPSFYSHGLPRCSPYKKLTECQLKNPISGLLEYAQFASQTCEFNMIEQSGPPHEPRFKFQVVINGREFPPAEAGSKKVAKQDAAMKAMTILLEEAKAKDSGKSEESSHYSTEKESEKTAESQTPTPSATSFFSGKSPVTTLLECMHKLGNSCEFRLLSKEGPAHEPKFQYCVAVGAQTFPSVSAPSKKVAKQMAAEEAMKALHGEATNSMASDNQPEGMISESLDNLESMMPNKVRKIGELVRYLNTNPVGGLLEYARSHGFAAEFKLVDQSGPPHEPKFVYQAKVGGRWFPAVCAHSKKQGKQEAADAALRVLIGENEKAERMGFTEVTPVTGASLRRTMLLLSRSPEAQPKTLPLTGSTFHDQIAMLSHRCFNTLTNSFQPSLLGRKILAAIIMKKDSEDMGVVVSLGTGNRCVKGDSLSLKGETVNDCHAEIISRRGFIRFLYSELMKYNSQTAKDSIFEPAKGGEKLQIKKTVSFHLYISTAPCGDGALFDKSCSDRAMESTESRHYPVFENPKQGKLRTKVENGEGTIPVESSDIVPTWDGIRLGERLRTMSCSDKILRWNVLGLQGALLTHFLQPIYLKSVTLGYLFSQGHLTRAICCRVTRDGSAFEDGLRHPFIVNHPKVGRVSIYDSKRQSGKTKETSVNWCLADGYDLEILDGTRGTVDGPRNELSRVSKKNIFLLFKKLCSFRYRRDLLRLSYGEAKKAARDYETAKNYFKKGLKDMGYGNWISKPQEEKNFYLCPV
Procedure: The in vitro editing reaction mixture, containing 5 nM of telomere RNA:RNA duplex substrates and 75 nM of HAT-ADAR1p110-WT, FLAG-ADAR1p110-WT, or HA-ADAR1p110-EAA protein, was incubated at 37° C. for 2 h in in vitro editing buffer I (20 mM HEPES-KOH PH 7.5, 100 mM NaCl, 0.01% NP-40, 5% glycerol, 1 mM DTT). For editing of RNA:DNA hybrid substrates, in vitro editing buffer II (20 mM HEPES-KOH PH 7.5, 20 mM NaCl, 0.01% NP-40, 5% glycerol, 1 mM DTT) was used. Edited RNA or DNA strands were purified using Dynabeads MyOne Streptavidin C1 (Thermo Fisher Scientific). To remove opposite RNA or DNA strands, rNase H (NEB) or TURBO dNase (Thermo Fisher Scientific) was used, respectively. For sequencing of edited substrates, reverse transcription-PCR was carried out for RNA strands, while PCR was carried out for DNA strands. RT reactions were carried out using SuperScript III Reverse Transcriptase (Thermo Fisher Scientific), and PCR reactions were performed using Platinum Taq DNA polymerase (Thermo Fisher Scientific). PCR products were sequenced using a specific sequencing primer, and the ratio of A and G peaks in the chromatograms were analyzed by CodonCode Aligner (CodonCode Corporation).
Seven additional analogs of ADAR1i-13 (FIG. 5A) were synthesized to determine structural characteristics required for ADAR1 editing inhibitory activity. […] In vitro editing IC50 values of ADAR1i-13, ADAR1i-120, and ADAR1i-124 (FIG. 5A) were similar, in the ~10-20 μM range, for both ADAR1p110 (FIG. 5A) and ADAR1p150 (not shown).

Row | Structure (SMILES) | DNA damage, M phase arrest and apoptosis markers [1] | IC50 [2] [µM] | Inhibition of ADAR1p150 ([2]; result in words)
1 | N#Cc1ccc(NC(=O)c2sc3ccccc3c2Cl)cc1 [ADAR1i-13, 3-chloro-N-(4-cyanophenyl)-1-benzothiophene-2-carboxamide] | induced DNA damage, M phase arrest, and apoptosis | 10 to 20 | –
2 | N#Cc1ccccc1NC(=O)c1sc2ccccc2c1Cl [ADAR1i-120] | induced DNA damage, M phase arrest, and apoptosis | 10 to 20 | –
3 | N#Cc1ccc(NC(=O)c2c(Cl)c3ccccc3n2CO)cc1 [ADAR1i-124] | induced DNA damage, M phase arrest, and apoptosis; also recorded: upregulated g-H2AX, Histone 3 phosphorylated at Serine 10, and cleaved PARP bands | 10 to 20 | inhibited both ADAR1p150 and ADAR1p-110
